Each structure is given as a SMILES string. Like-named read-outs stand apart in the source and are kept apart here.

In patent US20260207565A1, “COMPOUNDS THAT INHIBIT PKMYT1” (Exelixis, Inc., priority 2022, published 2026) one finds IC50 data, which are given here for 16 compounds.

The target of one assay is T1, PKMYT1 (Homo sapiens, UniProt Q99640).
T1 construct: PKMYT1 (93 kD, full length, N-terminal GST tag from Signal Chem); GST (N); purchased Signal Chem
T1 sequence (Q99640 1-499): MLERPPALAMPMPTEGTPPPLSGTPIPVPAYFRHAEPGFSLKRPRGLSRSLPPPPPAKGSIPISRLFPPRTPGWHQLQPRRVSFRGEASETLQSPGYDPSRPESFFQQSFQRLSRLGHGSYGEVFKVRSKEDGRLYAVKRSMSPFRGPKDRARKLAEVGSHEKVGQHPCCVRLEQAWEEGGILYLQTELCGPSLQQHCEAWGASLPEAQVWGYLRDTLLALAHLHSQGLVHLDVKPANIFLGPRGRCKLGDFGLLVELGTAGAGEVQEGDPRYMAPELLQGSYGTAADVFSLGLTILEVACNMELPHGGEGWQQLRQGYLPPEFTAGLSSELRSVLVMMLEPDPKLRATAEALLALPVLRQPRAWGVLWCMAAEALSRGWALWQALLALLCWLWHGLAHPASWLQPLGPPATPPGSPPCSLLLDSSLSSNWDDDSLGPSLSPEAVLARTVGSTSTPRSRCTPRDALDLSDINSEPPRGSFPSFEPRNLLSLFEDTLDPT
Kind of assay: ADP-Glo PKMYT1 ATP-depletion assay. The settings on record: 50 nM PKMYT1, 13.3 nM CDK1, 88 μM ATP, 120 minutes at RT, read-out: Biochemical IC50. The protocol:
(§1) Biochemical IC50 values were determined via ADP-Glo™ assay. Cellular IC50 values were determined via AlphaLISA assay.
ADP-Glo™ PKMYT1 ATP-depletion assay. The activity of PKMYT1 is measured using a luciferase-luciferin based ATP detection reaction to quantify ATP depletion resulting from kinase-catalyzed phosphoryl transfer to CDK1 or autophosphorylation of PKMYT1. The ADP generated as a byproduct of the reaction is converted to ATP and used to drive a luciferase reaction. Test compounds were dissolved in DMSO and dispensed into Corning 3824 384-well plates prior to the experiment such that the final DMSO concentration was <10%. To the compounds was added 3 μL of PKMYT1 (93 kD, full length, N-terminal GST tag from Signal Chem). The reaction was started by the addition of 2 μL of CDK1 (58 kDa, full length, N-terminal GST tag from Signal Chem) and ATP in assay buffer (50 mM Hepes, 40 mM NaCl, 10 mM MgCl2, 1 mM DTT, 0.1 mg/mL BSA, 2.5 mM MnCl2). Final assay concentrations were 50 nM PKMYT1, 13.3 nM CDK1, and 88 μM ATP. Plates were centrifuged for 1 minute at 1000 RPM and incubated at RT for 120 minutes. After the incubation period, ADP-Glo™ reagent was added and the plates were incubated for another 40 minutes before finally adding the kinase detection reagent, 30 minutes after the addition, plates were placed on a PHERAstar® plate reader and read using the Luminescence Protocol, integration time at 0.5 seconds.

The subject of assay [1] is phosphorylation of CDK1 at Thr14 in HCC1806 cells. The experiment in a line: Cell lysate AlphaLISA assay measuring inhibition of phosphorylation of CDK1 Thr14. The settings on record: compounds incubated 4 hours, AlphaLISA SureFire Ultra CDK1 Thr14, read-out: Cellular IC50. In kind it is cell-based. The method, then:
as §1
Cell lysate AlphaLISA® assay measuring inhibition of phosphorvlation of CDK1 Thr14. Inhibition of phosphorylation of CDK1 at Thr14 was determined using AlphaLISAn SureFire® Ultra™ Kit from Perkin Elmer (ALSU-PCDK1-A10K). HCC1806 cells were seeded at 2K cells per well (50 μl/well) in 384-well plates (Corning 3570) and stored overnight at 37° C. and 5% CO2. The following day, the compounds dissolved in DMSO were introduced to the cells and incubated for 4 hours at 37° C. and 5% CO2. The cells were then washed with PBS using Blue® Washer and 10 μl of lysis buffer containing protease inhibitor was added. The plate was placed on an orbital shaker (at 4° C.) for 30 minutes and stored overnight at −80° C. for complete lysing. The next day, the plates were thawed at room temperature for at least 30 min. Reagents were prepared in a dimmed light setting (<100 lumens). The assay was run by first adding 5 μl of the acceptor mix (reaction buffer 1: reaction buffer 2:activation buffer:acceptor beads 47:47:4:2), covering the plate with foil, shaking for 2 minutes, and incubating at RT for 60 minutes. The donor mix (dilution buffer:donor beads 47:3) was then added at 5 μl per well, placed on the shaker for 2 minutes and incubated at RT for 60 minutes before reading the plates on a PHERAstar® plate reader. The results were normalized to DMSO (0% Inhibition) and 3 μM of reference compound.

The IC50 is the concentration that inhibits the measured activity by half. `COC(=O)c1cnc2c(-c3cccc(O)c3C)c(N)c(C(N)=O)cn12` [Compound 50, Methyl 7-amino-6-carbamoyl-8-(3-hydroxy-2-methylphenyl)imidazo[1,2-a]pyridine-3-carboxylate]: the IC50 at PKMYT1 lay within 0.05 to 0.5 µM; in assay [1] (Homo sapiens, HCC1806, 4 h) it was 0.5 to 1 µM.
Regarding `Cc1c(O)cccc1-c1c(N)c(C(N)=O)cn2ccnc12` [Compound 43, 7-amino-8-(3-hydroxy-2-methylphenyl)imidazo[1,2-a]pyridine-6-carboxamide], the IC50 at PKMYT1 is 0.5 to 1 µM; in assay [1] (Homo sapiens, HCC1806, 4 h) it was at least 5 µM.
As for `Cc1ccc(O)c(C)c1-c1cc(C(N)=O)cc2nn(C)cc12` [Compound 36, 4-(3-hydroxy-2,6-dimethylphenyl)-2-methyl-indazole-6-carboxamide], the IC50 on PKMYT1 is 1 to 5 µM; in assay [1] (Homo sapiens, HCC1806, 4 h) it was at least 5 µM.
Regarding `Cc1ccc(O)c(C)c1-c1cc(C(N)=O)cc2c1cnn2C` [Compound 35, 4-(3-hydroxy-2,6-dimethylphenyl)-1-methyl-indazole-6-carboxamide], the IC50 was 1 to 5 µM at PKMYT1 and at least 5 µM in assay [1] (Homo sapiens, HCC1806, 4 h).
Regarding `Cc1ccc(O)c(C)c1-c1c(N)c(C(N)=O)cn2ccnc12` [Compound 46, 7-amino-8-(3-hydroxy-2,6-dimethylphenyl)imidazo[1,2-a]pyridine-6-carboxamide], the IC50 is 0.05 to 0.5 µM at PKMYT1 and 1 to 5 µM in assay [1] (Homo sapiens, HCC1806, 4 h).
With `Cc1ccc(O)c(C)c1-c1cc(C(N)=O)nc2cn[nH]c12` [Compound 16, 7-(3-hydroxy-2,6-dimethylphenyl)-1H-pyrazolo[4,3-b]pyridine-5-carboxamide], the IC50 on PKMYT1 was 1 to 5 µM; in assay [1] (Homo sapiens, HCC1806, 4 h) it was at least 5 µM.
On to `Cc1ccc(O)c(C)c1-c1cc(C(N)=O)nc2c1c(C#N)c(C)n2C` (single isomer, unassigned) [Compound 34], for which the IC50 on PKMYT1 is below 0.05 µM.
`Cc1c(O)cccc1-c1c(N)c(C(N)=O)cn2ccnc12` (single isomer, unassigned) [Compound 45]: the IC50 at PKMYT1 is at least 5 µM; in assay [1] (Homo sapiens, HCC1806, 4 h), at least 5 µM.
Take `Cc1ccc(O)c(C)c1-c1c(N)c(C(N)=O)nc2c1ncn2C(F)F` (atropisomer, axis not shown; (P)) [Compound 72, (P)-6-Amino-3-(difluoromethyl)-7-(3-hydroxy-2,6-dimethylphenyl)-3H-imidazo[4,5-b]pyridine-5-carboxamide]: the IC50 at PKMYT1 is below 0.05 µM; in assay [1] (Homo sapiens, HCC1806, 4 h), below 0.05 µM.
As to `Cc1ccc(O)c(C)c1-c1c(N)c(C(N)=O)nc2c1ncn2CC(F)(F)F` (atropisomer, axis not shown; (P)) [Compound 86, (P)-6-amino-7-(3-hydroxy-2,6-dimethylphenyl)-3-(2,2,2-trifluoroethyl)-3H-imidazo[4,5-b]pyridine-5-carboxamide], the IC50 on PKMYT1 was below 0.05 µM; in assay [1] (Homo sapiens, HCC1806, 4 h) it was below 0.05 µM.
Turning to `Cc1c(O)cccc1-c1c(N)c(C(N)=O)nc2c1c(C#N)nn2C` (single isomer, unassigned) [Compound 59, (P)-5-amino-3-cyano-4-(3-hydroxy-2-methylphenyl)-1-methyl-1H-pyrazolo[3,4-b]pyridine-6-carboxamide], the IC50 is 1 to 5 µM at PKMYT1 and at least 5 µM in assay [1].
`Cc1c(Cl)cncc1-c1c(N)c(C(N)=O)nc2c1c(C#N)cn2C` [Compound 10]: the concentration for half-maximal inhibition (IC50) at PKMYT1 lay in the range of 0.05 to 0.5 µM.
On the same count and under the same terms, under `Cc1ccc(O)c(C)c1-c1cc(C(N)=O)nc2c1c(C#N)c(C)n2C` (single isomer, unassigned) [Compound 33] stands 1 to 5 µM; under `Cc1c(Cl)cncc1-c1c(N)c(C(N)=O)nc2c1c(C#N)cn2C` [Compound 11], below 0.05 µM.
Regarding `Cc1ccc(O)c(C)c1-c1cc(C(N)=O)nc2c1c(Cl)cn2C` (single isomer, unassigned) [Compound 32], the IC50 at PKMYT1 is 0.05 to 0.5 µM.
For the compound `Cc1ccc(O)c(C)c1-c1cc(C(N)=O)nc2c1c(Cl)cn2C` (single isomer, unassigned) [Compound 31], the concentration for half-maximal inhibition (IC50) on PKMYT1 was at least 5 µM.
